Reference: US6989390B2, “Amonafide salts” (priority 2002, dated 2006)
Where a name gives a salt, the structure may show the parent alone.

Experiments:
[1] = Solubility assessment of amonafide salts (50, 100, 200 mg in 1 ml USP water or isotonic saline); assay type: physicochemical
Method: A number of organic acid amonafide salts of the present invention were tested for their solubility in aqueous medium and compared with the solubility of the corresponding hydrochloride and methansolufonic acid salts. […] Solutions were allowed to equilibrate for 1 hour, their dissolution status noted, and then refrigerated for an additional hour (at 2° C.). Thereafter, the samples were returned to room temperature and examined for precipitate formation and allowed to equilibrate for another hour until a final inspection for dissolution status.

[2] = Minimum amount of water/ethanol (1.5/4 v/v) required to dissolve the crude salt at boil (recrystallization); assay type: physicochemical; conditions: minimum water/ethanol (1.5/4 v/v) to dissolve crude product at boil; salt made by the method in column 2
Description: For comparative purposes, between and among organic salts prepared in this manner and for the purposes of subsequent Example 3, Table 3, crude reaction products were recrystalized from water/ethanol (1.5/4 v/v per gram of salt) using the minimum amount of solvent to effect dissolution at boil.
In the case of succinic acid, the organic acid was dispensed as a half-equivalent in order to generate mitonafide hemisuccinate. […] Crude product that was isolated from the hydrogenation reaction mixture was analyzed for purity by high pressure liquid chromatography (HPLC) according to the conditions described in Table 1 above. The crude product was recrystallized from water/ethanol (1.5/4 v/v) using the minimum amount of solvent required to dissolve the crude product at boil, which is shown in the last column of Table 3 for each salt. The recrystallized product was then analyzed for purity by HPLC.
The purities of the crude salts were assessed by HPLC according to the conditions described in Table 1 above. The crude salts were then recrystallized from the minimum amount of water/ethanol (1.5/4 v/v) using the minimum amount of solvent required to dissolve the crude product at boil, which is shown in the last column of Table 3 for each salt. The resulting purified salts were again assessed for purity.
The hydrochloride and methanesulfonic acid salts of amonafide were prepared according to U.S. Pat. No. 5,420,137. Exemplary procedures are as follows: 3 g of crude amonafide free base, obtained as described in the previous two paragraphs, above, were dissolved under reflux in 60 ml of virtually anhydrous ethanol. Subsequently 1 ml of 35% (1 equivalent, estimated) strength hydrochloric acid was added dropwise while shaking vigorously. After cooling, the resulting crystals were filtered off and washed with 10 ml of anhydrous ethanol. The methanesulfonic acid salt was obtained using the same procedure, but replacing hydrochloric acid with 0.8 ml of methanesulfonic acid. The purity was assessed by HPLC using the conditions described in Table 1. The isolated products were then recrystallized from water/ethanol (1.5/4 v/v) using the minimum amounts of solvent required to dissolve the crude product at boil, which are shown for each salt in Table 3. The resulting purified salts were again assessed for purity.
The hydrochloride salt of amonafide was obtained by the method of Zee-Chang et al., U.S. Pat. No. 4,614,820. Exemplary conditions are as follows: a mixture of the hydrochloride salt of N-(dimethylaminoethyl)-3-nitro-1,8-naphthalimide and 10% palladium-on-charcoal in water was hydrogenated at room temperature under 40 lbs/in^2 of hydrogen for one hour. […] To the mixture was added 3 ml of concentrated hydrochloric acid. It was then filtered and the filtrate was evaporated to dryness under reduced pressure. The residue was triturated with 30 ml of absolute ethanol and filtered. The resulting solid was then washed with ether and dried. The purity was assessed by HPLC using the conditions described in Table 1. The crude product was then recrystallized from water/ethanol (1.5/4 v/v) using the minimum amount of solvent (40 mL/g) required to dissolve the crude product at boil. The resulting purified salts were again assessed for purity.

[3] = 50 mg salt in 1 ml 0.9% sodium chloride (saline), 0 hours
[4] = 50 mg salt in 1 ml 0.9% sodium chloride (saline), 1 hours
[5] = 50 mg salt in 1 ml distilled water, 0 hours
[6] = 50 mg salt in 1 ml distilled water, 1 hours
[7] = 100 mg salt in 1 ml 0.9% sodium chloride (saline), 0 hours
[8] = 100 mg salt in 1 ml 0.9% sodium chloride (saline), 1 hours
[9] = 100 mg salt in 1 ml distilled water, 0 hours
[10] = 100 mg salt in 1 ml distilled water, 1 hours

Amonafide succinate
Dissolution Status [1, 3]: Insoluble
Dissolution Status [1, 4]: Insoluble
Dissolution Status [1, 5]: Soluble
Dissolution Status [1, 6]: Soluble
Dissolution Status [1, 7]: Insoluble
Dissolution Status [1, 8]: Insoluble
Dissolution Status [1, 9]: Insoluble
Dissolution Status [1, 10]: Insoluble
Solvent [2]: 20 mL/g

CN(C)CCN1C(=O)c2cccc3cc(N)cc(c23)C1=O.O=C(O)CCC(=O)C(=O)O [Amonafide 2-oxoglutarate]
Solvent [2]: 30 mL/g

Amonafide pyruvate
Dissolution Status [1, 3]: Soluble
Dissolution Status [1, 4]: Soluble
Dissolution Status [1, 5]: Soluble
Dissolution Status [1, 6]: Soluble
Dissolution Status [1, 7]: Soluble
Dissolution Status [1, 8]: Soluble
Dissolution Status [1, 9]: Soluble
Dissolution Status [1, 10]: Soluble
Dissolution Status ([1]; 200 mg salt in 1 ml 0.9% sodium chloride (saline), 0 hours): Partially Soluble
Dissolution Status ([1]; 200 mg salt in 1 ml 0.9% sodium chloride (saline), 1 hours): Partially Soluble
Dissolution Status ([1]; 200 mg salt in 1 ml distilled water, 0 hours): Soluble
Dissolution Status ([1]; 200 mg salt in 1 ml distilled water, 1 hours): Soluble
solubility in distilled water and in saline at high concentration compared with the hydrochloride salt forms / organic salts ([1]; text summary of Table 4): more soluble
Solvent [2]: 20 mL/g

CN(C)CCN1C(=O)c2cccc3cc(N)cc(c23)C1=O.O=C(O)c1ccccc1O [Amonafide salicylate]
Solvent [2]: 35 mL/g

CN(C)CCN1C(=O)c2cccc3cc(N)cc(c23)C1=O.CS(=O)(=O)O [Amonafine methanesulfonate, reference compound]
Solvent [2]: 25 mL/g

CN(C)CCN1C(=O)c2cccc3cc(N)cc(c23)C1=O [Amonafide HCl, Amonafide Monohydrochloride, reference compound]
solubility in the test panel of Tables 3 and 4 ([1]; monohydrochloride prepared by salt exchange, 99.2% pure): low solubility
Solvent [2]: 40 mL/g

amonafide fumarate
Dissolution Status [1, 3]: Insoluble
Dissolution Status [1, 4]: Insoluble
Dissolution Status [1, 5]: Insoluble
Dissolution Status [1, 6]: Insoluble
Solvent [2]: 25 mL/g

CN(C)CCN1C(=O)c2cccc3cc(N)cc(c23)C1=O.O=C(O)C(O)C(O)C(=O)O [Amonafide L-tartrate]
Solvent [2]: 20 mL/g

amonafide maleate
Dissolution Status [1, 3]: Insoluble
Dissolution Status [1, 4]: Insoluble
Dissolution Status [1, 5]: Insoluble
Dissolution Status [1, 6]: Insoluble
Solvent [2]: 20 mL/g

CN(C)CCN1C(=O)c2cccc3cc(N)cc(c23)C1=O.O=C(O)CO [Amonafide glycolate]
Solvent [2]: 12.5 mL/g

Amonafide Aspartate
Solvent [2]: 30 mL/g

CN(C)CCN1C(=O)c2cccc3cc(N)cc(c23)C1=O.O=C(O)CCCCC(=O)O [Amonafide Adipate]
Solvent [2]: 25 mL/g

amonafide hemisuccinate [Amonafide hemi-succinate]
Solvent [2]: 15 mL/g

CN(C)CCN1C(=O)c2cccc3cc(N)cc(c23)C1=O.O=C(O)CC(=O)O [Amonafide malonate, amonafide malonate]
Solvent [2]: 20 mL/g

CN(C)CCN1C(=O)c2cccc3cc(N)cc(c23)C1=O.O=C(O)CC(O)(CC(=O)O)C(=O)O [Amonafide Citrate]
Solvent [2]: 25 mL/g
